For data set [1], the system named is dihydrotestosterone. As to the kind of experiment: Dihydrotestosterone (DHT) in fasting blood. In kind it is in vivo, human. To be noted: Clinical trial; treatment alone, without Danazol. From the text:
(§1) Fasting blood samples were taken between 9 and 12 am to minimize the effects of diurnal variation, and analyses included the standard full biochemical, lipid and haematology profiles, prostate specific antigen and routine urine analysis. The endocrine assessment included follicle stimulating hormone (FSH) and luteinizing hormone (LH) prolactin, total testosterone (TT), dihydrotestosterone (DHT), sex hormone binding globulin (SHBG), oestradiol (E2) cortisol and either total thyroxine or TSH.

A short description of data set [2]: Andropause CheckList score (ACL) and clinical symptom response in hypogonadal men. In kind it is in vivo, human. As to conditions: for clinical response / symptoms: Example 2, person, pre-treatment ACL 25, successive treatments. Here is the method:
ACL—Andropause CheckList Score—A questionnaire rating the incidence and severity of symptoms of the andropause. The greater the checklist score, the more severe are the symptoms.
These consecutive referrals were evaluated at interview by administering a questionnaire, the “Andropause Check List” which rated each symptom on a five point rating scale as being absent (0), slight (1), moderate (2), severe (3) or total (4). It also included questions on the monthly frequency of intercourse and masturbation. A detailed history was taken focussing especially on factors which might affect testicular function and this was entered onto a computerised database (Microsoft Access).
(§2) During treatment, the severity of symptoms and level of sexual activity on the Andropause Check List score was reassessed at three monthly intervals, as well as weight, blood pressure, resting pulse rate, full endocrine, biochemical and haematological profiles, and in some cases ultrasound studies of the prostate and testes. In all cases, subjects were used as their own controls in the comparison of the effects of treatment. All results were stored in a specially designed Microsoft Access database, and […] analyes were carried out using the SPSS version 9 programme.

The subject of data set [3] is Sex Hormone Binding Globulin. Nature of the data set: Sex Hormone Binding Globulin (SHBG) in fasting blood. It counts as in vivo, human. As to conditions: for Sex Hormone Binding Globulin: Clinical trial, FIG. 4, started above the normal range (20-45 nmol/l) in Danazol groups.
Text: SHBG—Sex Hormone Binding Globulin in nmol/l (NR 20-45)
as §1

Data set [4] deals with Total Testosterone. Nature of the data set: Total Testosterone (TT) in fasting blood. In kind it is in vivo, human.
Text: TT—Total Testosterone in nmol/l (NR 13-35)
as §1

The test system of data set [5] is Luteinising Hormone. Nature of the data set: Luteinising Hormone (LH) in fasting blood. In kind it is in vivo, human.
Text: LH—Luteinising Hormone in IU/l (NR 0.7-6)
as §1

Data set [6] relates to Oestradiol. As to the kind of experiment: Oestradiol (E2) in fasting blood. It counts as in vivo, human.
Text: as §1

Data set [7] concerns Free Androgen Index. Nature of the data set: Free Androgen Index (FAI = TT/SHBG x 100). In kind it is in vivo, human. The text has this:
It has been found (Carruthers, M. ‘The Male Menopause, Harpercollins’, London, 1996) that the symptoms associated with this condition arise due to an absolute or relative insufficiency of testosterone, particularly the latter, caused by a reduction in the Free Active Testosterone (FAT); that is a lack of testosterone present in an unbound state in blood plasma. Testosterone in vivo can be bound to sex hormone binding globulin (SHBG) and to a lesser extent, albumin. When bound the testosterone is not freely available to the body or bio-available. One of the best measures of this is the ‘Free Androgen Index’ (FAI). This is calculated by dividing the Total Testosterone (TT) by the ‘sex Hormone Binding Globulin’ (SHBG) and multiplying by a hundred to express it as a percentage. In the healthy, asymptomatic male this is normally in the range 70-100%. Symptoms of the andropause regularly appear when this drops below 50%, except in a few cases where the TT is low and the body appears to compensate by reducing SHBG levels to maintain the FAI.
FAI—Free Androgen Index (NR 70-100%)

Data set [8] has as its system Follicle Stimulating Hormone. As to the kind of experiment: Follicle Stimulating Hormone (FSH) in fasting blood. It counts as in vivo, human.
Text: FSH—Follicle Stimulating Hormone in IU/l (NR 1-6)
as §1

In data set [9] the test system is oestrogen receptors. To be noted: cited from earlier work.
A short description of data set [10]: Sexual activity (intercourse per month) reported by subjects. To be noted: Example 5, person; D1 alone, within 3 months; before: once a month. It counts as in vivo, human.
Data set [11] addresses T1, progesterone receptors (Homo sapiens, UniProt P06401).
T1 sequence (P06401 1-933): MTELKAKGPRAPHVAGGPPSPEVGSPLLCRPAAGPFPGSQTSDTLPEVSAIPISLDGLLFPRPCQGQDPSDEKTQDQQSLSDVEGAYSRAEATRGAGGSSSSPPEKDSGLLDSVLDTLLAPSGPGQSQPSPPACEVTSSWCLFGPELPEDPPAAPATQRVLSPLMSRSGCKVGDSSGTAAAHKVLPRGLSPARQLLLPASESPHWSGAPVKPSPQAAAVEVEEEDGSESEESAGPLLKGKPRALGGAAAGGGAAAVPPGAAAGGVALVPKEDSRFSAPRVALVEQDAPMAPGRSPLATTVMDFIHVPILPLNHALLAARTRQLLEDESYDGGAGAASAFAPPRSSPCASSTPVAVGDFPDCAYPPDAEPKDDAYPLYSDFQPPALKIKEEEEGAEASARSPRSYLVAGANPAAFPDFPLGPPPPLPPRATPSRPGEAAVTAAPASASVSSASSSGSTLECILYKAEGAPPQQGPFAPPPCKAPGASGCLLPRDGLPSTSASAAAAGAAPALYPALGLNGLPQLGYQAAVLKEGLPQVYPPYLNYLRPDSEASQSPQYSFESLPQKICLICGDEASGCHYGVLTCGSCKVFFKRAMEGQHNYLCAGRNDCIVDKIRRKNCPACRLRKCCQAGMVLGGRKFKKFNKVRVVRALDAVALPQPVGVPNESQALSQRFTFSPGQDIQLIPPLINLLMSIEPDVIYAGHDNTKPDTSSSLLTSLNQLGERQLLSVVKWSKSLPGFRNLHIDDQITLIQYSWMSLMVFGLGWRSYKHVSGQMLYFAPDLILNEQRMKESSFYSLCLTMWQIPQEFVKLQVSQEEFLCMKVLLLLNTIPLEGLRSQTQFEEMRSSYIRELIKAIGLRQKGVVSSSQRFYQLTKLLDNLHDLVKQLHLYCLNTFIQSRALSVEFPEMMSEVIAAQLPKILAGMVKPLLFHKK
To be noted: cited from earlier work.

The test system of data set [12] is Total Testosterone. To be noted: cited from earlier work.
Data set [13] deals with Prostate Specific Antigen. As to the kind of experiment: PSA, biochemistry and haematology profiles during treatment. In kind it is in vivo, human. To be noted: Example 5; D1 alone, 2 years.
Text: PSA—Total Prostate Specific Antigen in ug/l (NR<4.0)
as §1, §2

The nature of data set [14]: Adverse effects / tolerability. As to conditions: Example 2.
Setting [15] is: Example 1, R3 increased monthly to R4 then R6.

Several values for one entry are separate records, joined by “and”; a condition that tells them apart may be missing. Identical values can stand only once.

For the compound `C[C@H]1CC(=O)C[C@@H]2CC[C@H]3[C@@H]4CC[C@H](O)[C@@]4(C)CC[C@@H]3[C@]21C` [ME, mesterolone], the DHT entry in [1] was “trebling”. Besides, in data set [2], the “clinical response / symptoms” value is recorded as “poor clinical response”.
In the case of `CCCCCCCCCCC(=O)O[C@H]1CC[C@H]2[C@@H]3CCC4=CC(=O)CC[C@]4(C)[C@H]3CC[C@]12C` [Restandol, testosterone undecanoate], the “Sex Hormone Binding Globulin” value in [3] was “reduction in SHBG levels on its own”. Further, the SHBG in [3] (Example 1, R3 increased monthly to R4 then R6, Restandol alone, pre-treatment 73) was 47 nmol/L; in data set [3] (Example 3, R6, after 3 months, pre-treatment 56.7) it was 112 nmol/L. Besides, the TT came out at 21.4 nmol/L in [4] (Example 1, R3 increased monthly to R4 then R6, pre-treatment 27.4) and 22.2 nmol/L in [4] (Example 3, person, R6, after 3 months, pre-treatment 20). Moreover, in data set [5] (Example 1, R3 increased monthly to R4 then R6, pre-treatment 6.1), the LH is on record as 6.7 IU/l. Also, in [6] (setting [15]), the E2 turned out to be 178 pmol/L. Besides, the FAI in data set [7] (Example 1, R3 increased monthly to R4 then R6, pre-treatment 38%) amounted to 46%; in [7] (Example 3, R6, after 3 months, pre-treatment 35), 19.8%. Also, in [2] (Example 1, person, R3 increased at monthly intervals to R4 then R6), the relief of symptoms entry is listed as “only partial relief of symptoms”. For the same compound, the “clinical response / symptoms” value in data set [2] was “poor clinical response”. In addition, the clinical results in data set [2] (Example 6, further reduction of testosterone dosage to the lowest level of R2) is “excellent”. Moreover, the FSH in data set [8] (setting [15]) was 8.9 IU/l.
Consider `C#C[C@]1(O)CC[C@H]2[C@@H]3CCC4=Cc5oncc5C[C@]4(C)[C@H]3CC[C@@]21C` [Danazol, [1,2], oxazolo[4,5-b]17alpha-pregna-2,4-dien-20-yn-17beta-ol], for which, in data set [9], the “interaction with oestrogen receptors” value is reported as “does not interact with oestrogen receptors to any significant extent”. For the same compound, in [10], the sexual activity entry is “twice a week”. Moreover, the “affinity for progesterone receptors” value in [11] is recorded as “low affinity”. Moreover, in [3], the “Sex Hormone Binding Globulin” value is on record as “uniformly ended at the bottom end of it”. Besides, the SHBG was 19 nmol/L and 23 nmol/L and 17 nmol/L in data set [3] (Example 5, D1 alone, successive values over 2 years, listed as D1); 39 nmol/L in data set [3] (Example 5, D1 alone, within 3 months, pre-treatment 72). In addition, the total plasma testosterone entry in [12] (previous uses in women and men at doses of 200 to 600 mg) is “reduced”. The TT in [4] (Example 5, D1 alone, within 3 months, pre-treatment 50) was 48 nmol/L. In addition, in data set [5] (Clinical trial, FIG. 7, Danazol added to the testosterone treatment), the “LH (gonadotrophins)” value is reported as “greater reductions”. Moreover, the LH in data set [5] (Example 5, D1 alone, within 3 months, pre-treatment 6.0) is 2.9 IU/l. Moreover, the E2 in [6] (Example 5, D1 alone, within 3 months, pre-treatment 120) was less than 44 pmol/L. For the same compound, in data set [7] (Clinical trial, FIG. 5, Danazol added to the three testosterone treatments), the “Free Androgen Indices” value was “markedly increased”. Besides, the FAI in [7] (Example 5, D1 alone, within 3 months, pre-treatment 69.4) amounted to 123%. Further, in [2] (Clinical trial, FIG. 1, Danazol 100 mg alternate mornings or daily added to testosterone treatment, up to six 3-6 monthly visits), the “total Andropause Check List (ACL) score” value is “fell equally”. In [2] (Clinical trial, danazol added to three different forms of testosterone treatment, particularly where SHBG raised), the “efficacy of testosterone treatment for hypogonadal men” value is recorded as “greatly increased their efficacy”. Further, in [2] (Example 5, D1 alone, for 2 years), the clinical response result is “maintained”. In addition, the ACL in [2] (Example 5, D1 alone, within 3 months, pre-treatment ACL 26) came to 14. The “effects on PSA, full biochemistry or haematological profile” value in [13] is given as “no adverse effects”. In addition, the FSH entry in data set [8] (Clinical trial, FIG. 6, Danazol added to the testosterone treatment) is reported as “greater reductions”; in data set [8] (Example 5, D1 alone, within 3 months, pre-treatment 5.9) it was 4.5 IU/l.
`C[C@]12CC[C@H]3[C@@H](CCC4=CC(=O)CC[C@@]43C)[C@@H]1CC[C@@H]2O` [TI, testosterone]: in [1], the DHT result is listed as “no increase”. In addition, the SHBG was 74 nmol/L in data set [3] (Example 1, TI, a year later); 82.1 nmol/L and 85 nmol/L and 54 nmol/L and 81 nmol/L in data set [3] (Example 3, TI alone, successive values during the following 2 years); 95.3 nmol/L in data set [3] (Example 3, TI, after 6 months). Also, the mean testosterone levels in [12] (previous study, samples taken 3 months after implantation) was 45 nmol/L. For the same compound, the TT in [4] (Example 1, TI, a year later) was found to be 35.6 nmol/L; in data set [4] (Example 3, TI, after 6 months) it was 30.6 nmol/L. The LH result in [5] (Example 1, TI, a year later) is on record as “total suppression”. Moreover, the FAI in [7] (Example 1, TI, a year later) is reported as 48%; in data set [7] (Example 3, TI, after 6 months), 32%. Moreover, in data set [2] (Example 1, TI, 3 years after starting treatment), the symptoms result is on record as “symptoms reappeared”. For the same compound, in data set [2] (Example 1, after change to TI), the erection problems result is “rapidly improved”. In addition, the “clinical response / symptoms” value in data set [2] is listed as “relieved their symptoms”. Further, in data set [14], the “adverse events of implant” value is listed as “became infected on several occasions, with extrusion of pellets”. For the same compound, in data set [8] (Example 1, TI, a year later), the FSH entry was “total suppression”.
